Test results reported in PubChem BioAssay AID1963971 (Molecular Pharmacology Branch, DTP, NCI, 2024).

Tested on: 953936-095-R-J2-PDC spheroids with HUVEC/MSC, viability
Assay: Anticancer human tumor 953936-095-R-J2-PDC patient-derived cervical squamous cell carcinoma cell line growth inhibition [PI3K]
Settings: for IC50: curve of first compound; for viability, T/C: stronger effect = lower value
Text: Combinatorial screen of targeted agents with the PI3K inhibitors inavolisib, alpelisib, duvelisib, and copanlisib in multi-cell type tumor spheroids
A high-throughput screen of multi-cell type tumor spheroids was designed to identify active combinations of targeted small molecules and PI3K pathway inhibitors. Complex spheroids include a stromal component modeled by human endothelial cells (HUVEC) and fibroblasts modeled by human mesenchymal stem cells (MSCs). The concentration ranges selected for each drug and investigational agent were based upon clinically achievable concentrations if the clinical Cmax of the agent was known.
Compounds. The drugs and investigational agents: inavolisib (NSC800729), alpelisib (NSC765974), duvelisib (NSC772469), copanlisib (NSC816437), ipatasertib (NSC767898), afuresertib (NSC778305), talazoparib (NSC767125), sapanisertib (NSC764658), selumetinib (NSC741078), tovorafenib (DAY101, NSC766906), vemurafenib (NSC761431), ravoxertinib (NSC781343), sotorasib (NSC818433), MRTX1133 (NSC 836407), abemaciclib (NSC 768073), palbociclib (NSC758247), venetoclax (NSC 766270), SY5609 (NSC837396), enzalutamide (NSC755605), and darolutamide (NSC825331), were obtained from the National Cancer Institute (NCI) Developmental Therapeutics Program Chemical Repository. The FDA-approved anticancer drug set is available from the NCI Developmental Therapeutics Program. […] The stock solutions were prepared in dimethyl sulfoxide (DMSO, Sigma-Aldrich, St. Louis, MO, cat. D2650) at 800-fold the tested concentration and stored at -70 degrees C prior to their use. All drugs and investigational agents were tested over a range starting from a high concentration at or near the clinical Cmax and decreasing in half-log increments. If the clinical Cmax for an agent had not been determined, the highest concentration tested was 10 microM.
Cell Culture. All cells were maintained in an incubator at 37 degrees C and 5% CO2 with 95% humidity. The PDC lines were cultured according to standard operating procedures established by the NCI PDMR (https://pdmr.cancer.gov/sops/default.htm). All PDCs were thawed and cultured in Matrigel-coated flasks prepared with a working solution of 1X Ham's F-12 nutrient mix, without supplementation (Invitrogen, Waltham, MA, cat. 11765054), 100 U/mL penicillin-streptomycin (Invitrogen, cat. 15140122), and 2.5% Matrigel (Corning Inc., Corning, NY, cat. 354248) for the first three passages. The 354836-022-R-J1-PDC, 475296-252-R-J1-PDC, and 997726-040-R-J2-PDC lines were cultured in 6A media, which includes advanced DMEM/F-12 (Thermo Fisher Scientific, cat. 12634028), 10 mM HEPES (Thermo Fisher Scientific, cat. 15630080), 1X GlutaMAX supplement (Thermo Fisher Scientific, cat. 35050061), 0.1 mg/mL primocin (InvivoGen, San Diego, CA, cat. ant-pm-2), 10% defined fetal bovine serum, heat inactivated (HyClone Laboratories Inc., Logan, UT, cat. SH30070.03HI), 50% L-WRN conditioned media (ATCC, cat. CRL-3276), 1.25 mM N-Acetyl-L-cysteine (Sigma-Aldrich, cat. A9165), 10 mM nicotinamide (Sigma-Aldrich, cat. N0636), 1X B-27 supplement (Thermo Fisher Scientific, cat. 17504044), 1X N-2 supplement (Thermo Fisher Scientific, cat. 17502048), and 10 microM Y-27632 dihydrochloride (Tocris Bioscience, Bristol, United Kingdom, cat. 1254). The 624824-186-R-J2-PDC line was cultured in 6C/Colon 1B media, which includes all 6A media components plus 50 ng/mL human EGF recombinant protein (Thermo Fisher Scientific, cat. PHG0311). […]

[1] = second compound 0.00316 µM, first compound 0.0316 µM
[2] = second compound 0.00316 µM, first compound 0.1 µM
[3] = second compound 0.01 µM, first compound 0.0316 µM
[4] = second compound 0.01 µM, first compound 0.1 µM
[5] = second compound 0.0316 µM, first compound 0.0316 µM
[6] = second compound 0.0316 µM, first compound 0.1 µM
[7] = second compound 0.1 µM, first compound 0.0316 µM
[8] = second compound 0.1 µM, first compound 0.1 µM
[9] = second compound 0.316 µM, first compound 0.0316 µM
[10] = second compound 0.316 µM, first compound 0.1 µM
[11] = second compound 1 µM, first compound 0.0316 µM
[12] = second compound 1 µM, first compound 0.1 µM
[13] = second compound 0.00316 µM, first compound 0.316 µM
[14] = second compound 0.00316 µM, first compound 1 µM
[15] = second compound 0.00316 µM, first compound 3.16 µM
[16] = second compound 0.00316 µM, first compound 10 µM
[17] = second compound 0.01 µM, first compound 0.316 µM
[18] = second compound 0.01 µM, first compound 1 µM
[19] = second compound 0.01 µM, first compound 3.16 µM
[20] = second compound 0.01 µM, first compound 10 µM
[21] = second compound 0.0316 µM, first compound 0.316 µM
[22] = second compound 0.0316 µM, first compound 1 µM
[23] = second compound 0.0316 µM, first compound 3.16 µM
[24] = second compound 0.0316 µM, first compound 10 µM
[25] = second compound 0.1 µM, first compound 0.316 µM
[26] = second compound 0.1 µM, first compound 1 µM
[27] = second compound 0.1 µM, first compound 3.16 µM
[28] = second compound 0.1 µM, first compound 10 µM
[29] = second compound 0.316 µM, first compound 0.316 µM
[30] = second compound 0.316 µM, first compound 1 µM
[31] = second compound 0.316 µM, first compound 3.16 µM
[32] = second compound 0.316 µM, first compound 10 µM
[33] = second compound 1 µM, first compound 0.316 µM
[34] = second compound 1 µM, first compound 1 µM
[35] = second compound 1 µM, first compound 3.16 µM
[36] = second compound 1 µM, first compound 10 µM
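Also: spheroids exposed to compounds for seven days before read-out.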

CC(C)n1nc(-c2ccc3oc(N)nc3c2)c2c(N)ncnc21 + CC(Nc1ccc2c(c1)OCCn1cc(N3C(=O)OCC3C(F)F)nc1-2)C(N)=O
IC50 (second compound 0.00316 µM): 0.0275 µM | IC50 (second compound 0.01 µM): 0.0231 µM | IC50 (second compound 0.0316 µM): 0.0142 µM | IC50 (second compound 0.1 µM): 0.0014 µM | IC50 (second compound 0.316 µM): < 0.000316 µM | IC50 (second compound 1 µM): < 0.000316 µM | viability, T/C (second compound 0.00316 µM, first compound 0.000316 µM): 92.9% | viability, T/C (second compound 0.00316 µM, first compound 0.001 µM): 93.3% | viability, T/C (second compound 0.00316 µM, first compound 0.00316 µM): 81.3% | viability, T/C (second compound 0.00316 µM, first compound 0.01 µM): 73.7% | viability, T/C [1]: 46.2% | viability, T/C [2]: 15.5% | viability, T/C (second compound 0.01 µM, first compound 0.000316 µM): 87.1% | viability, T/C (second compound 0.01 µM, first compound 0.001 µM): 88.8% | viability, T/C (second compound 0.01 µM, first compound 0.00316 µM): 79.1% | viability, T/C (second compound 0.01 µM, first compound 0.01 µM): 67.6% | viability, T/C [3]: 43.6% | viability, T/C [4]: 15.2% | viability, T/C (second compound 0.0316 µM, first compound 0.000316 µM): 73% | viability, T/C (second compound 0.0316 µM, first compound 0.001 µM): 71.9% | viability, T/C (second compound 0.0316 µM, first compound 0.00316 µM): 73.4% | viability, T/C (second compound 0.0316 µM, first compound 0.01 µM): 53.5% | viability, T/C [5]: 35.7% | viability, T/C [6]: 12.1% | viability, T/C (second compound 0.1 µM, first compound 0.000316 µM): 57.7% | viability, T/C (second compound 0.1 µM, first compound 0.001 µM): 52.5% | viability, T/C (second compound 0.1 µM, first compound 0.00316 µM): 44.3% | viability, T/C (second compound 0.1 µM, first compound 0.01 µM): 34% | viability, T/C [7]: 21.6% | viability, T/C [8]: 7.99% | viability, T/C (second compound 0.316 µM, first compound 0.000316 µM): 34.1% | viability, T/C (second compound 0.316 µM, first compound 0.001 µM): 31.2% | viability, T/C (second compound 0.316 µM, first compound 0.00316 µM): 28.5% | viability, T/C (second compound 0.316 µM, first compound 0.01 µM): 22.7% | viability, T/C [9]: 13.1% | viability, T/C [10]: 6.47% | viability, T/C (second compound 1 µM, first compound 0.000316 µM): 20.8% | viability, T/C (second compound 1 µM, first compound 0.001 µM): 21.7% | viability, T/C (second compound 1 µM, first compound 0.00316 µM): 18.3% | viability, T/C (second compound 1 µM, first compound 0.01 µM): 16.3% | viability, T/C [11]: 9.69% | viability, T/C [12]: 5.32%

CC1(C)CCC(CN2CCN(c3ccc(C(=O)NS(=O)(=O)c4ccc(NCC5CCOCC5)c([N+](=O)[O-])c4)c(Oc4cnc5[nH]ccc5c4)c3)CC2)=C(c2ccc(Cl)cc2)C1 + CC(Nc1ccc2c(c1)OCCn1cc(N3C(=O)OCC3C(F)F)nc1-2)C(N)=O
IC50 (second compound 0.00316 µM): 6.92 µM | IC50 (second compound 0.01 µM): 8.42 µM | IC50 (second compound 0.0316 µM): 8.12 µM | IC50 (second compound 0.1 µM): > 10 µM | IC50 (second compound 0.316 µM): < 0.0316 µM | IC50 (second compound 1 µM): < 0.0316 µM | viability, T/C [1]: 88.4% | viability, T/C [2]: 89.8% | viability, T/C [13]: 90.4% | viability, T/C [14]: 100% | viability, T/C [15]: 142% | viability, T/C [16]: 25.5% | viability, T/C [3]: 90.2% | viability, T/C [4]: 88.9% | viability, T/C [17]: 92.3% | viability, T/C [18]: 93.6% | viability, T/C [19]: 115% | viability, T/C [20]: 41.9% | viability, T/C [5]: 77% | viability, T/C [6]: 74.6% | viability, T/C [21]: 75.8% | viability, T/C [22]: 75.8% | viability, T/C [23]: 85% | viability, T/C [24]: 44% | viability, T/C [7]: 57.7% | viability, T/C [8]: 53% | viability, T/C [25]: 53.1% | viability, T/C [26]: 59.4% | viability, T/C [27]: 59.5% | viability, T/C [28]: 48.3% | viability, T/C [9]: 35.7% | viability, T/C [10]: 36% | viability, T/C [29]: 33.5% | viability, T/C [30]: 31.8% | viability, T/C [31]: 32.5% | viability, T/C [32]: 36.9% | viability, T/C [11]: 22.3% | viability, T/C [12]: 24.4% | viability, T/C [33]: 21.2% | viability, T/C [34]: 22.1% | viability, T/C [35]: 22.1% | viability, T/C [36]: 21.7%

C[C@@H](NC(=O)c1ncnc(N)c1Cl)c1ncc(C(=O)Nc2cc(C(F)(F)F)c(Cl)cn2)s1 + CC(Nc1ccc2c(c1)OCCn1cc(N3C(=O)OCC3C(F)F)nc1-2)C(N)=O
IC50 (second compound 0.00316 µM): > 10 µM | IC50 (second compound 0.01 µM): > 10 µM | IC50 (second compound 0.0316 µM): > 10 µM | IC50 (second compound 0.1 µM): > 10 µM | IC50 (second compound 0.316 µM): < 0.0316 µM | IC50 (second compound 1 µM): < 0.0316 µM | viability, T/C [1]: 98.6% | viability, T/C [2]: 103% | viability, T/C [13]: 101% | viability, T/C [14]: 104% | viability, T/C [15]: 113% | viability, T/C [16]: 97.7% | viability, T/C [3]: 97.2% | viability, T/C [4]: 89.3% | viability, T/C [17]: 102% | viability, T/C [18]: 99.5% | viability, T/C [19]: 107% | viability, T/C [20]: 121% | viability, T/C [5]: 78.6% | viability, T/C [6]: 74.3% | viability, T/C [21]: 78.2% | viability, T/C [22]: 90.8% | viability, T/C [23]: 93.9% | viability, T/C [24]: 85.2% | viability, T/C [7]: 55.6% | viability, T/C [8]: 56.5% | viability, T/C [25]: 61.2% | viability, T/C [26]: 61.5% | viability, T/C [27]: 67.8% | viability, T/C [28]: 53.2% | viability, T/C [9]: 37.2% | viability, T/C [10]: 34.8% | viability, T/C [29]: 38.3% | viability, T/C [30]: 39.8% | viability, T/C [31]: 40.8% | viability, T/C [32]: 41.9% | viability, T/C [11]: 23% | viability, T/C [12]: 26.8% | viability, T/C [33]: 25.3% | viability, T/C [34]: 27.2% | viability, T/C [35]: 27.7% | viability, T/C [36]: 24.8%
